# Reference: patent publication US4170642A, “Derivatives of kanamycin A” (Zaidan Hojin Biseibutsu Kagaku Kenkyu Kai, priority 1974, dated 1979)
# Assays:
# Format in all cases: cell-based
# Escherichia coli K-12 R5 = experiment: MIC by serial dilution method on nutrient agar; conditions: K12R5
# Procedure: (§1) The minimum inhibitory concentrations (MIC) of 1-AHB-6'-MKM and 1-AHB-6'-EKM against various micro-organisms were determined by the serial dilution method using a nutrient agar medium at 37° C.
# [1] = system: Escherichia coli K-12 ML1630; experiment: MIC by serial dilution method on nutrient agar; conditions: for MIC: K12ML1630, nutrient agar, 37° C
# Procedure: as §1
# [2] = system: Pseudomonas aeruginosa No. 12; experiment: MIC by serial dilution method on nutrient agar; conditions: 37° C
# Procedure: as §1
# [3] = system: Pseudomonas aeruginosa 99; experiment: MIC by serial dilution method on nutrient agar; conditions: 37° C
# Procedure: as §1
# [4] = system: Staphylococcus aureus FDA209P; experiment: MIC by serial dilution method on nutrient agar; conditions: 37° C
# Procedure: as §1
# Escherichia coli K-12 = experiment: MIC by serial dilution method on nutrient agar; conditions: K12, 37° C
# Procedure: as §1
# [5] = system: Mycobacterium smegmatis ATCC607; experiment: MIC by serial dilution method on nutrient agar; conditions: Mycolicibacterium smegmatis, 37° C
# Procedure: as §1
# Escherichia coli W677 = experiment: MIC by serial dilution method on nutrient agar; conditions: 37° C
# Procedure: as §1
# [6] = system: Klebsiella pneumoniae PCI 602; experiment: MIC by serial dilution method on nutrient agar; conditions: PCI602, 37° C
# Procedure: as §1
# [7] = system: Pseudomonas aeruginosa A3; experiment: MIC by serial dilution method on nutrient agar; conditions: 37° C
# Procedure: as §1
# [8] = system: Escherichia coli K-12 ML1629; experiment: MIC by serial dilution method on nutrient agar; conditions: for MIC: K12ML1629, nutrient agar, 37° C
# Procedure: as §1
# [9] = system: Escherichia coli K-12 ML1410; experiment: MIC by serial dilution method on nutrient agar; conditions: K12ML1410, 37° C
# Procedure: as §1
# [10] = system: Klebsiella pneumoniae 22#3038; experiment: MIC by serial dilution method on nutrient agar; conditions: for MIC: nutrient agar, 37° C
# Procedure: as §1
# [11] = system: Escherichia coli JR66/W677; experiment: MIC by serial dilution method on nutrient agar; conditions: for MIC: nutrient agar, 37° C
# Procedure: as §1
# [12] = system: Pseudomonas aeruginosa GN315; experiment: MIC by serial dilution method on nutrient agar; conditions: for MIC: nutrient agar, 37° C
# Procedure: as §1
# [13] = system: Pseudomonas aeruginosa TI-13; experiment: MIC by serial dilution method on nutrient agar; conditions: for MIC: TI13, nutrient agar, 37° C
# Procedure: as §1
# [14] = system: Escherichia coli LA290 R56; experiment: MIC by serial dilution method on nutrient agar; conditions: LA290R56
# Procedure: as §1
# [15] = system: Escherichia coli LA290 R64; experiment: MIC by serial dilution method on nutrient agar; conditions: LA290R64
# Procedure: as §1
# [16] = system: Escherichia coli LA290 R55; experiment: MIC by serial dilution method on nutrient agar; conditions: LA290R55
# Procedure: as §1
# [17] = system: some strains of gram-negative bacteria carrying R factor Staphylococcus aureus and Pseudomonas aeruginosa; experiment: resistance of strains isolated from patients
SMILES,MIC (Escherichia coli K-12 R5),MIC [1],MIC [2],MIC [3],MIC [4],MIC (Escherichia coli K-12),MIC [5],MIC (Escherichia coli W677),MIC [6],MIC [7],MIC [8],MIC [9],MIC [10],MIC [11],MIC [12],MIC [13],MIC [14],MIC [15],MIC [16],other results
"CNC[C@H]1O[C@H](O[C@H]2[C@H](O)[C@@H](O[C@H]3O[C@H](CO)[C@@H](O)[C@H](N)[C@H]3O)[C@H](NC(=O)[C@@H](O)CCN)C[C@@H]2N)[C@H](O)[C@@H](O)[C@@H]1O [1-AHB-6'-MKM, 1-N-(L-4-amino-2-hydroxybutyryl)-6'-N-methylkanamycin]",0.78 µg/mL,1.56 µg/mL,3.12 µg/mL,12.5 µg/mL,0.78 µg/mL,0.39 µg/mL,0.39 µg/mL,1.56 µg/mL,0.78 µg/mL,6.25 µg/mL,0.78 µg/mL,1.56 µg/mL,6.25 µg/mL,6.25 µg/mL,50 µg/mL,12.5 µg/mL,0.78 µg/mL,0.78 µg/mL,1.56 µg/mL,–
"CCNC[C@H]1O[C@H](O[C@H]2[C@H](O)[C@@H](O[C@H]3O[C@H](CO)[C@@H](O)[C@H](N)[C@H]3O)[C@H](NC(=O)[C@@H](O)CCN)C[C@@H]2N)[C@H](O)[C@@H](O)[C@@H]1O [1-AHB-6'-EKM, 1-N-(L-4-amino-2-hydroxybutyryl)-6'-N-ethylkanamycin]",1.56 µg/mL,6.25 µg/mL,25 µg/mL,100 µg/mL,1.56 µg/mL,1.56 µg/mL,3.12 µg/mL,1.56 µg/mL,1.56 µg/mL,25 µg/mL,3.12 µg/mL,3.12 µg/mL,25 µg/mL,25 µg/mL,100 µg/mL,50 µg/mL,1.56 µg/mL,1.56 µg/mL,3.12 µg/mL,–
"CNC[C@H]1O[C@H](O[C@H]2[C@H](O)[C@@H](O[C@H]3O[C@H](CO)[C@@H](O)[C@H](N)[C@H]3O)[C@H](N)C[C@@H]2N)[C@H](O)[C@@H](O)[C@@H]1O [6'-N-methylkanamycin, reference compound]",–,–,–,–,–,–,–,–,–,–,–,–,–,–,–,–,–,–,–,inhibition of kanamycin-resistant strain [1]: does not inhibit; inhibition of kanamycin-resistant strain [8]: does not inhibit; inhibition of kanamycin-resistant strain [10]: does not inhibit; inhibition of kanamycin-resistant strain [11]: does not inhibit; inhibition of kanamycin-resistant strain [12]: does not inhibit; inhibition of kanamycin-resistant strain [13]: does not inhibit
NC[C@H]1O[C@H](O[C@H]2[C@H](O)[C@@H](O[C@H]3O[C@H](CO)[C@@H](O)[C@H](N)[C@H]3O)[C@H](N)C[C@@H]2N)[C@H](O)[C@@H](O)[C@@H]1O [kanamycin],–,–,–,–,–,–,–,–,–,–,–,–,–,–,–,–,–,–,–,resistance of strains [17]: resistant
